Experimental data published in US11597725B2, “URAT1 inhibitor for promoting uric acid excretion” (JIANGSU ATOM BIOSCIENCE AND PHARMACEUTICAL CO., LTD., priority 2017, dated 2023).

Molecular target: T1, hURAT1 (Homo sapiens, UniProt Q96S37)
T1 sequence (Q96S37 1-553): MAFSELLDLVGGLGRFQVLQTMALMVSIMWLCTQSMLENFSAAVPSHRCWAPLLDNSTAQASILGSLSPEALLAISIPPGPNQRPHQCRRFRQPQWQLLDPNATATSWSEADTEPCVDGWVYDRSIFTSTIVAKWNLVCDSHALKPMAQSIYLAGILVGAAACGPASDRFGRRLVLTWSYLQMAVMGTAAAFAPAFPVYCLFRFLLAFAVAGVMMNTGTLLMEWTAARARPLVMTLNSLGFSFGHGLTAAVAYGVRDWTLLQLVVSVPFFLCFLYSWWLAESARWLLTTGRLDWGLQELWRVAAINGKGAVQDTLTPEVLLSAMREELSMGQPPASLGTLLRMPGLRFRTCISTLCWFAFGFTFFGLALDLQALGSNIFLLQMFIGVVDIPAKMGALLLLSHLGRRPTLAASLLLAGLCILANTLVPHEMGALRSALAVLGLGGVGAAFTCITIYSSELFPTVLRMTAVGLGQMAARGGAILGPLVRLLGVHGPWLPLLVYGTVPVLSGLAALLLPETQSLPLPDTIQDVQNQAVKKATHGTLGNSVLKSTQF
Test: Inhibition assay of uric acid transport in HEK293-hURAT1 transfection cell line (14C-uric acid uptake)
Format: cell-based
Settings: for inhibition at 0.5 µM: compound concentration 500 nM, HEK293-hURAT1 stable cells, 14C-uric acid, mean of three tests ±SD, read-out: Inhibition rate of uric acid transport, ±SD (%); for inhibitory effects of uric acid transport in HEK293-hURAT1 transfection cell line, in words: in comparison with control drug Zurampic at 500 nM
Experimental: Inhibition Assay of Uric Acid Transport for Compounds in HEK293-hURAT1 Transfection Cell Line
1. Construction of a HEK293 stable cell line with high expression of hURAT1:
The plasmid pCMV6-hURAT1 was transfected into HEK293 cells, then the stable strain was obtained by the G418 (final concentration of 500 μg/mL) resistance screening, which is the high expression of hURAT1 transporter membrane protein. It can be used for in vitro inhibition assay of uric acid transporter hURAT1 (Weaver Y M, Ehresman D J, Butenhoff J L, et al. Roles of rat renal organic anion transporters in transporting perfluorinated carboxylates with different chain lengths. Toxicological Sciences, 2009, 113(2):305-314).
2. Coating 24-well plate: to a coated 24-well plate was added 200 μl of 0.1 mg/mL poly-lysine per well and the plate was left overnight. Poly-lysine was removed from wells. The wells were cleaned thoroughly with steriled water and dried for use.
3. To the above coated 24-well plate was added HEK293-hURAT1 stable cells (2×10^5 cells per well). The cells were cultured at 37° C. under 5% CO2 for 3 days.
4. Preparation of HBSS buffer: the following reagents were weighed according to the final concentration of 125 mM sodium gluconate, 4.8 mM potassium gluconate, 1.3 mM calcium gluconate, 1.2 mM KH2PO4, 1.2 mM MgSO4, 5.6 mM glucose and 25 mM HEPES. Deionized water was added to reach the corresponding volume, and the solution was fully mixed to give HBSS (pH value: 7.4). The buffer was stored at −20° C. in a refrigerator.
5. At the day of experiment, the HBSS buffer was taken out of the refrigerator and warmed to 37° C. in a water bath. Taken out the 24-well plate with HEK293-hURAT1 stable cells, removed the culture medium and washed cells with HBSS, then add 160 μL of HBSS and 20 μL test compound per well. The final concentration of tested compound per well is 500 nM. The blank control well contains only 180 μL of HBSS without tested compound. The plate was placed at room temperature for 10 minutes.
6. To each well was added 20 μL of 50 μM ^14C-uric acid. The 24-well plate was placed at room temperature for 20 minutes.
7. The solution in each well was removed and the cells in each well were washed with the pre-cooled HBSS buffer. To each well was added 0.2 M NaOH to dissolve the cells. The solution containing cell fragments was collected and the appropriate amount of scintillation liquid was added. The radioisotope intensity of the ^14C-Uric acid (CPM value) was then detected by using PerkinElmer MicroBeta Trilux 1450 liquid scintillation analyzer.
8. In HEK293 transfected cell lines, the formula for calculating the inhabitation rate of uric acid transport for compounds was shown as below (Table 1), the CPM value of the tested compounds was represented by CPM(tested compound) and the CPM value of the blank control was represented by CPM(blank control). All tests were repeated three times, and the results were averaged and the standard deviation (SD) was calculated: Inhibition rate(%)(500 nM compound concentration)=(CPM(blank control)−CPM(test compound))/CPM(blank control)×100%

inhibition at 0.5 µM [%] | inhibitory effects of uric acid transport in HEK293-hURAT1 transfection cell line, in words | SMILES
27.6 ± 2.89 | – | O=C(O)CSc1nnc(Br)n1-c1ccc(C2CC2)c2ccccc12 [Zurampic, Lesinurad, reference compound]
47.6 ± 3.08 | very good inhibitory effects | CCc1nc2n(c1C(O)c1cc(Br)c(O)c(Br)c1)CCCC2 (stereo not shown) [Compound 42, 2,6-dibromo-4-[(2-ethyl-5,6,7,8-tetrahydroimidazo[1,2-a]-pyridin-3-yl)hydroxymethyl]phenol]
47.5 ± 1.65 | very good inhibitory effects | CCc1nc2n(c1C(=O)c1cc(Br)c(O)c(Br)c1)CCC(O)C2 (stereo not shown) [Compound 23, (3,5-dibromo-4-hydroxyphenyl)(2-ethyl-7-hydroxy-5,6,7,8-tetrahydroimidazo[1,2-a]pyridine-3-yl)methanone]
47.6 ± 4.12 | very good inhibitory effects | CCc1nc2n(c1C(=O)c1cc(Br)c(O)c(Br)c1)CCC(OC)C2 (stereo not shown) [Compound 25, (3,5-dibromo-4-hydroxyphenyl)-(2-ethyl-7-methoxy-5,6,7,8-tetrahydroimidazo[1,2-a]pyridin-3-yl)methanone]
46.1 ± 4.91 | very good inhibitory effects | CCc1nc2n(c1C(=O)c1cc(C)c(O)c(Br)c1)CCCC2 [Compound 48, (3-bromo-4-hydroxy-5-methylphenyl)(2-ethyl-5,6,7,8-tetrahydroimidazo[1,2-a]pyridin-3-yl)methanone]
47.46 ± 0.14 | very good inhibitory effects | CCc1nc2n(c1C(=O)c1cc(Br)c(O)c(C#N)c1)CCCC2 [Compound 17, 3-bromo-5-(2-ethyl-5,6,7,8-tetrahydroimidazo[1,2-a]pyridine-3-carbonyl)-2-hydroxybenzonitrile]
47.5 ± 3.12 | very good inhibitory effects | [2H]C1c2nc(CC)c(C(=O)c3cc(Br)c(O)c(Br)c3)n2C([2H])C([2H])([2H])C1[2H] (stereo not shown) [Compound 10, (3,5-dibromo-4-hydroxyphenyl)(5,6,6,7,8-pentadeuterio-2-ethyl-5,6,7,8-tetrahydroimidazo[1,2-a]pyridin-3-yl)methanone]
53.2 ± 9.36 | very good inhibitory effects | CCc1nc2n(c1C(=O)c1cc(Br)c(O)c(Br)c1)CC(C)CC2 (stereo not shown) [Compound 43, (3,5-dibromo-4-hydroxyphenyl)(2-ethyl-6-methyl-5,6,7,8-tetrahydroimidazo[1,2-a]pyridin-3-yl)methanone]
42.3 ± 2.6 | – | CCc1nc2n(c1C(O)c1cc(Br)c(O)c(C#N)c1)CCCC2 (stereo not shown) [Compound 63, 3-bromo-5-((2-ethyl-5,6,7,8-tetrahydroimidazo[1,2-a]pyridin-3-yl)hydroxymethyl)-2-hydroxyl benzonitrile]
46.2 ± 6.18 | very good inhibitory effects | CCn1nc2c(c1C(=O)c1cc(Br)c(O)c(Br)c1)CCCC2 [Compound 41, (3,5-dibromo-4-hydroxyphenyl)(2-ethyl-4,5,6,7-tetrahydro-2H-indazol-3-yl)methanone]
53.4 ± 4.54 | very good inhibitory effects | CCc1nc2n(c1C(=O)c1cc(Br)c(O)c(Br)c1)CCCC2 [Compound 5, (3,5-dibromo-4-hydroxyphenyl)(2-ethyl-5,6,7,8-tetrahydroimidazo[1,2-a]pyridine-3-yl)methanone]
43.4 ± 2.4 | – | CCc1nn2c(c1C(=O)c1cc(Br)c(O)c(Br)c1)CCCC2 [Compound 32]
38.6 ± 6.3 | – | CCn1nc2c(c1C(=O)c1cc(Br)c(O)c(Br)c1)COCC2 [Compound 58]
